The values that follow come from patent US20200254110A1, “LIGAND-CONJUGATES AND METHODS FOR TARGETED RECEPTOR-MEDIATED CELLULAR UPTAKE” (priority 2017, published 2020).

Ends that are not written are not given here.

In assay [1] the target is T1, PAR2-expressing HEK293 (human embryonic kidney) cells (Homo sapiens, UniProt P55085).
T1 construct: PAR2-expressing HEK293 (human embryonic kidney) cells; endogenous in cells; host or cells: HEK293
T1 sequence (P55085 26-397): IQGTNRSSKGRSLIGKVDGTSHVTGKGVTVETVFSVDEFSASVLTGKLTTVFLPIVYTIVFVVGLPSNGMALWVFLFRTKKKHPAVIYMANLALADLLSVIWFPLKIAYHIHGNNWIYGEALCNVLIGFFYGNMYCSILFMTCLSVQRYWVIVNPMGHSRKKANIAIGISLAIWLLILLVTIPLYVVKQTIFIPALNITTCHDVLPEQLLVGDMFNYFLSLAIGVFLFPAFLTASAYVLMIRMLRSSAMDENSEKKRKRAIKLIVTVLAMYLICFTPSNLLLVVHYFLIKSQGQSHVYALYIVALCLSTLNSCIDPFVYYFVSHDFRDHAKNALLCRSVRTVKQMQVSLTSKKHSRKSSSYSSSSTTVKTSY
In words: Intracellular Ca2+ mobilization assay (Indo-1 AM, flow cytometry). The format is cell-based. The conditions noted are these: for relative potential of PAR2 activation (rank order): HEK293 cells, calcium mobilization, FIG. 4 A-C; for shift in relative fluorescence intensity (RFI) of the cells relative to the untreated sample (PAR2 activation, intracellular calcium mobilization): HEK293 cells preincubated with Indo-1 AM, P6 100-200 μM, P8 200-400 μM, flow cytometry. The text has this: To test whether the modified PAR ligands such as the synthesis intermediates as well as the final compound P8 are capable of binding and activating PAR in vitro a calcium-based cell activation assay was established on the basis of the assay for measurement of intracellular Ca^2+ mobilization described in Kelm et al., J. Exp. Med. 195 (2002), 1207-1213, which can be used directly on PAR, i.e. PAR2 expressing cells.
SOP: Measurement of Intracellular Ca^2+ Mobilization • Thaw 1 aliquot of frozen (from liquid N2) HEK293 cells (careful at RT) • Provide 10 mL of DMEM (Dulbecco's Modified Eagle Medium, phenol red free!) containing 10% FCS, antibiotics (50 μg/mL gentamicin final conc.) on a 10 cm cell culture plate • Add cells to the plate and grow them at 37° C., 8% CO2 until 60-70% confluency (one cell layer on the plate) • Wash the cells 3× with 10 mM PBS (phosphate buffer saline), pH 7.4 • Add 10 mL of fresh DMEM (phenol red free!) and carefully resuspend the cells • Count the cells employing a flow cytometer and dilute to 3×10^5 cells/mL in DMEM (phenol red free!) • Pipette 1 ml of the diluted cell suspension in each well of a 24-well cell culture plate • Add 30 μL of Pluronic® F-127 (0.01% (v/v) final conc., P2443 Sigma-Aldrich) and 15 μL of Indo 1-AM ester in DMSO (15 μM final conc., I3261 Sigma-Aldrich) to the cell suspension • Incubate for 45 min at 37° C., 8% CO2, in the dark • Henceforward keep the cells in the dark • Remove cells from the culture plate and subsequently wash 1× with 15 mL of HEPES buffer (100 mM HEPES, pH 7.4) to remove excess Indo 1-AM ester and resuspend cells in 1 mL HEPES buffer (100 mM HEPES, pH 7.4) • Add 10 μL propidium iodide (PI: final conc. 100 ng/mL, P4864 Sigma-Aldrich) to the cell suspension and immediately perform flow cytometry analysis • Perform flow cytometry analysis using the appropriate laser/filter sets (CyFlow® Cube 8 Sysmex):
Indo 1-AM: λexcitation,max 345 nm, λemission,max 400 nm (Ca^2+ bound), λemission,max 475 nm (Ca^2+ free), (excitation: UV-LED, emission: FL4 channel, 455/50 nm)
PI: λexcitation,max 535 nm (DNA-bound), λemission,max 617 nm (DNA-bound), (excitation: 488 nm laser, emission: FL2 channel, 590/50 nm) • For PAR-2 activation, add the appropriate amount of activator (SLIGRL: 50 μM final conc., trypsin: 40 Units (TRYPSEQM-RO Roche), P6 or P8: 100-200 μM or 200-400 μM respectively) to the cell suspension (containing 15 nmol Indo 1-AM ester) and immediately perform flow cytometry analysis • Determine the decrease in relative fluorescence intensity (due to the shift from unbound towards calcium bound Indo 1-AM complexes) after PAR mediated activation of HEK293 cells
As described above, activation of PARs leads to the initiation of a variety of signal transduction pathways and downstream signaling. One consequence of PAR activation presents the intracellular calcium mobilization from storage reservoirs of the endoplasmic reticulum (ER) and mitochondria into the cytosol. […] In the present assay the Indo-1 AM fluorophore was used, which is an esterified derivative of Indo-1 and thus able to penetrate the cell membrane. Upon uptake into the cytoplasm, present esterases will transfer the ester into the carboxylate, which is then trapped in the cell due to its obtained negative charges. A shift in Indo-1 AM emission from 480 nm (calcium free Indo-1 AM) to 400 nm (calcium bound Indo-1 AM) can be detected employing a flow cytometer, when bound to free calcium. […]
On the technique in general: A change in cytosolic calcium serves as a functional read-out for many receptors and channels.

Assay [2] deals with PAR2 expressing keratinocytes (HaCaT). The experiment in a line: PAR2 mediated endocytosis assay (fluorescence microscopy). The format is cell-based, human. The conditions noted are these: keratinocytes serum-starved 24 h, 2 h incubation, FIG. 5. As to the method: SOP: PAR2 Mediated Endocytosis Assay • Culture HaCaT (cultured human keratinocytes) cells in DMEM (Dulbecco's Modified Eagle Medium, phenol red free!) supplemented with 10% (w/v) FCS and antibiotics (gentamicin: 50 μg/mL final conc.) in a 10 cm cell culture plate at a confluency (one cell layer on the plate) of 60-70% • Count the cells and dilute to 1-2×10^4 cells/mL in DMEM (phenol red free!) • Incubate 1 mL of the diluted cell suspension in each well of a 24-well cell culture plate supplemented with 10% (w/v) FCS (containing gentamicin at a final conc. of 50 μg/mL) on a glass coverslip for 24 h at 37° C., 5% CO2 • Discard the supernatant and carefully wash the cells 3 times with 500 μL DMEM (phenol red free, without FCS!) • Incubate the cells for 24 h at 37° C., 5% CO2 (DMEM without serum addition, phenol red free only!) • Add CaCl2 solution to reach a final concentration of 1.5 mM in the medium when using Ca^2+-free medium (induction of cell differentiation) • For PAR2 activation […]
An endocytosis assay was used to test whether the PAR ligand-conjugate, i.e. PAR2 agonist P8 enhances the uptake of IONPs into PAR, here PAR2 expressing keratinocytes, when immobilized to the surface of the IONP. […] After the incubation, cells were washed thoroughly for several times and internalization of the modified IONPs was analyzed employing fluorescent microscopy (FIG. 5, lower right corner). […]

Assay [3] has as its target T2, PAR2 (Homo sapiens, UniProt P55085).
T2 sequence (P55085 26-397): T1 sequence (P55085 26-397)
The conditions noted are these: PAR2 agonist peptide, reference [1]; cited from earlier work.

Take “SerLeuIleGlyArgLeu-NH2 (SLIGRL-NH2) [PAR2 agonist hexapeptide, native tethered ligand of rodent PAR2, reference compound]”: the “relative potential of PAR2 activation (rank order)” value (shortened to “relative potential”) in assay [1] was “decreased from SLIGRL-NH2, to P6 and further to P8”.
Fam5/6-Lysine-DEG-SLIGRL [P8]: in assay [1], the “shift in relative fluorescence intensity (RFI) of the cells relative to the untreated sample (PAR2 activation, intracellular calcium mobilization)” value was “induced a shift in relative fluorescence intensity”; the “relative potential” value was “decreased from SLIGRL-NH2, to P6 and further to P8”.
For “P8 modified IONPs (SLIGRL; not fully specified (C-terminus); also: P8 modified IONPs (on iron oxide nanoparticles))”, in assay [2], the “uptake (internalization) into cultured keratinocytes” value is “successful uptake”.
Consider 2-furoyl(1)L(2)IG(4)RL(6)-NH2, for which the “effectiveness relative to SLIGRL-NH2” value in assay [3] is recorded as 10-20 fold.
For the substance NH2-DEG-SLIGRL [P6], in assay [1], the “shift in relative fluorescence intensity (RFI) of the cells relative to the untreated sample (PAR2 activation, intracellular calcium mobilization)” value is “induced a shift in relative fluorescence intensity”; the “relative potential” value is “decreased from SLIGRL-NH2, to P6 and further to P8”.
